Reference: patent US9205091B2, “Diazeniumdiolated compounds, pharmaceutical compositions, and method of treating cancer” (The United States of America, as represented by the …, priority 2009, dated 2015)

How the values were obtained:
H1355/CRL5865 = test: MTT proliferation assay, JS-K 48 h (Example 3); type: cell-based, human; conditions: 10 concentrations 50 nM to 50 μM
Method: (§1) JS-K is synthesized as described previously (Saavedra et al., J. Org. Chem., 66: 3090-3098(2001)). Cell lines are obtained from the American Type Culture Collection (Manassas, Va.) and cultured according to the supplier's protocol. For proliferation assays cells are seeded at 2×10^4 per well in 96-well plates and allowed to adhere for 24 h. JS-K is prepared as 10 mM stock solution in DMSO. Increasing drug concentrations in 10 μL of PBS are added to 100 μL of the culture medium for 48 h. MTT assay (Promega, Madison, Wis.) is performed according to the manufacturer's protocol. Each concentration is represented in six repeats, and the screening is performed as at least two independent experiments. IC50 values are calculated using Sigma Plot software (Systat Software, Chicago, Ill.).

H2030/CRL5914 = test: MTT proliferation assay, JS-K 48 h (Example 3); type: cell-based, human; conditions: 10 concentrations 50 nM to 50 μM
Method: as §1

A549/CCL185 = test: MTT proliferation assay, JS-K 48 h (Example 3); type: cell-based, human; conditions: 10 concentrations 50 nM to 50 μM
Method: as §1

H460/HTB177 = test: MTT proliferation assay, JS-K 48 h (Example 3); type: cell-based, human; conditions: 10 concentrations 50 nM to 50 μM
Method: as §1

H2023/CRL5912 = test: MTT proliferation assay, JS-K 48 h (Example 3); type: cell-based, human; conditions: 10 concentrations 50 nM to 50 μM
Method: as §1

H1395/CRL5868 = test: MTT proliferation assay, JS-K 48 h (Example 3); type: cell-based, human; conditions: 10 concentrations 50 nM to 50 μM
Method: as §1

H1568/CRL5876 = test: MTT proliferation assay, JS-K 48 h (Example 3); type: cell-based, human; conditions: 10 concentrations 50 nM to 50 μM
Method: as §1

H838/CRL5844 = test: MTT proliferation assay, JS-K 48 h (Example 3); type: cell-based, human; conditions: 10 concentrations 50 nM to 50 μM
Method: as §1

H1734/CRL5891 = test: MTT proliferation assay, JS-K 48 h (Example 3); type: cell-based, human; conditions: 10 concentrations 50 nM to 50 μM
Method: as §1

H1944/CRL5907 = test: MTT proliferation assay, JS-K 48 h (Example 3); type: cell-based, human; conditions: 10 concentrations 50 nM to 50 μM
Method: as §1

H2126/CRL5925 = test: MTT proliferation assay, JS-K 48 h (Example 3); type: cell-based, human; conditions: 10 concentrations 50 nM to 50 μM
Method: as §1

H2122/CRL5985 = test: MTT proliferation assay, JS-K 48 h (Example 3); type: cell-based, human; conditions: 10 concentrations 50 nM to 50 μM
Method: as §1

H322/CRL5806 = test: MTT proliferation assay, JS-K 48 h (Example 3); type: cell-based, human; conditions: 10 concentrations 50 nM to 50 μM
Method: as §1

H1792/CRL5895 = test: MTT proliferation assay, JS-K 48 h (Example 3); type: cell-based, human; conditions: 10 concentrations 50 nM to 50 μM
Method: as §1

H1373/CRL5866 = test: MTT proliferation assay, JS-K 48 h (Example 3); type: cell-based, human; conditions: 10 concentrations 50 nM to 50 μM
Method: as §1

H1703/CRL5889 = test: MTT proliferation assay, JS-K 48 h (Example 3); type: cell-based, human; conditions: 10 concentrations 50 nM to 50 μM
Method: as §1

H1693/CRL5887 = test: MTT proliferation assay, JS-K 48 h (Example 3); type: cell-based, human; conditions: 10 concentrations 50 nM to 50 μM
Method: as §1

H441/HTB174 = test: MTT proliferation assay, JS-K 48 h (Example 3); type: cell-based, human; conditions: 10 concentrations 50 nM to 50 μM
Method: as §1

H1944 cells = test: Intracellular nitric oxide, DAF-FM diacetate; type: cell-based, human; conditions: 1 μM, up to 60 min
Method: Cells growing on 6-well plates are loaded with 2.5 μM DAF-FM diacetate in HBSS at 37° C. and 5% CO2. After 30 min of incubation the cells are rinsed with HBSS to remove excess probe, and JS-K in fresh HBSS is added to the cells at 1 μM final concentration. After 30 or 60 min incubation the fluorescence of the benzotriazole derivative formed on DAF-FM's reaction with aerobic NO is analyzed using a Perkin Elmer LS50B luminescence spectrometer with the excitation source at 495 nm and emission at 515 nm. All experiments are performed at least three times, each time in triplicate.

[1] = Body weight of xenograft mice, JS-K (Example 3); type: in vivo; conditions: 6 μmol/kg i.v., three times a week for three weeks
Method: H1944 or H1703 cells are injected at 5×10^6 s.c. into a flank of 7-week-old female athymic NCr-nu/nu mice (Charles River, Wilmington, Mass.). The drug injections are initiated when the tumors reached 2×2×2 mm (typically 3-4 weeks). JS-K is formulated in Pluronic P123 (P123) (BASF, Florham Park, N.J.) micelles. Animals are treated three times a week for three weeks with i.v. tail vein injections of either vehicle (2.25% P123 in PBS) or JS-K (6 μmol/kg in the vehicle). Tumors are measured using a caliper twice a week, and the tumor volumes are calculated using a formula for ellipsoid volume, π/6×L×W×H (Tomayko and Reynolds, 1989). The non-parametric Mann-Whitney test is utilized for statistical comparisons of tumor volumes at each time point. Body weights are taken before each drug injection. Animals are sacrificed 2 h after the last drug injection. Blood is collected by cardiac puncture under isoflurane anesthesia, for testing for cytokines. Cytokines in serum are measured using a mouse Th1/2 multiplex assay (Meso Scale Discovery, Gaithersburg, Md.), according to the manufacturer's protocol. There were 9-13 mice/group at termination.

H1944 = test: CellTiter 96 MTT cell proliferation assay (Example 9); type: cell-based, human
Method: (§2) Cell lines derived from human non-small cell lung cancers are obtained from American Type Culture Collection (ATCC, Manassas, Va.), and are designated by their NCI numbers. Cells are maintained in RPMI 1640 medium (Gibco, Invitrogen, Carlsbad, Calif.), supplemented with 10% fetal calf serum (Gemini Bio-Products, Sacramento, Calif.), 100 U/mL penicillin/streptomycin, and 2 mM glutamine at 37° C. and 5% CO2.
(§3) For proliferation assays cells are seeded at 2×10^4/well in 96-well plates, allowed to adhere for 24 hrs, and then are treated with the drug or DMSO as a control for 48 hours. […] Compounds are prepared as 10 mM stock solution in dimethyl sulfoxide (Sigma, St. Louis, Mo.). Increasing drug concentrations in 10 μL of phosphate-buffered saline (PBS) are added to 100 μL of the culture medium and incubated at 37° C. for 72 h. The CellTiter 96 non-radioactive cell proliferation assay (MTT assay, Promega, Madison, Wis.), is performed according to the manufacturer's protocol. Each compound concentration is represented in six repeats, and the screening is performed as at least two independent experiments. IC50 values are calculated using Sigma Plot software (Systat Software).

H1703 = test: as above; type: cell-based, human
Method: as §2, §3

H1373 = test: as above; type: cell-based, human
Method: as §2, §3

H441 = test: as above; type: cell-based, human
Method: as §2, §3

H2122 = test: as above; type: cell-based, human
Method: as §2, §3

## CCOC(=O)N1CCN(/[N+]([O-])=N/Oc2ccc([N+](=O)[O-])cc2[N+](=O)[O-])CC1 [Compound 1]
H1355/CRL5865
  IC50: 7.93 µM
H2030/CRL5914
  IC50: 14.7 µM
A549/CCL185
  IC50: 7.6 µM
H460/HTB177
  IC50: 7.61 µM
H2023/CRL5912
  IC50: 11.6 µM
H1395/CRL5868
  IC50: 3.17 µM
H1568/CRL5876
  IC50: 0.4 µM
H838/CRL5844
  IC50: 5.84 µM
H1734/CRL5891
  IC50: 0.36 µM
H1944/CRL5907
  IC50: 17.6 µM
H2126/CRL5925
  IC50: 4.13 µM
H2122/CRL5985
  IC50: 6.09 µM
H322/CRL5806
  IC50: 8.71 µM
H1792/CRL5895
  IC50: 9.08 µM
H1373/CRL5866
  IC50: 0.97 µM
H1703/CRL5889
  IC50: 0.4 µM
H1693/CRL5887
  IC50: 0.33 µM
H441/HTB174
  IC50: 1.01 µM
H1944 cells
  intracellular NO: increase
[1]
  effect on body weight: did not affect body weight
H1944
  IC50: > 10 µM
H1703
  IC50: 0.57 µM
H1373
  IC50: 0.86 µM
H441
  IC50: 0.94 µM
H2122
  IC50: 3.17 µM
